Source: patent EP2724723A1, “Tegaserod for use in the treatment of nerve injuries” (Universitätsklinikum Hamburg-Eppendorf, priority 2012, dated 2014)

Columns and labels:
[1] = tested on: 2 mm femoral nerve defect; assay: Femoral nerve regeneration: locomotor recovery (FBA, PLR, recovery index); type: in vivo, C57BL/6J mice; settings: for average FBA (foot base angle): end of the 15-week study, control group 93 degrees
Description: Briefly, mice were anesthetized and the femoral nerve of the left rear leg exposed. The nerve was bis-sected 3 mm proximal to the branching of the saphenous and motor branches, and the nerve ends were sutured 0.5 mm into a 3 mm polyethylene conduits with 0.58 mm inner diameter (Becton Dickinson), leaving an overall gap length of 2 mm.
The FBA measures the angle between the hind paw and a beam as the mouse is pushing and bearing weight with the foot of the injured limb.
FBA is governed largely by the quadriceps muscle, the major muscular innervation target of the femoral nerve. Mice were trained to walk on a beam for 2 weeks prior to surgery and single frame video motion analysis (Simi Reality Motion Systems, Simi Sportsplayer) was used to quantify the angle between the beam and the foot when the toes from the left leg are fully extended.
As a complement to assessment of the FBA that measures a weight-bearing reflexive movement, the protraction limb ratio (PLR) is indicative of voluntary movement of the hind limb. […] Mice are suspended by the tail above a pencil and allowed to grasp the pencil. The PLR is measured by dividing the relative length that the uninjured hind leg extends to the pencil by the length that the injured hind limb extends.
To account for any variability between animals, an index is calculated that takes into account the initial FBA and PLR of animals prior to surgery. The recovery index is calculated by the equation: RI= (Xday y-Xday 1wk)/(Xday 0-Xday 7) x 100, where Xday0 is the measurement before injury, Xday 1wk is the measurement one week after injury, and Xday y is the measurement at the study endpoint. An RI value 100 indicates complete recovery of function.

Schwann cells = assay: In vitro process outgrowth of Schwann cells; type: cell-based, C57BL/6J mice; settings: compared to control; Figure 2C, D
Experimental: (§1) Primary cultures of cerebellar neurons or Schwann cells were prepared from cerebellum or dorsal root ganglia of 7-day-old C57BL/6J mice as described in Mehanna et al. (2009), Brain, 132 (Pt 6): 1449-62 and Loers et al. (2005), J. Neurochem., 92(6): 1463-76. Motoneurons were prepared from E14 C57BL/6J mice as described in Simova et al. (2006), Ann. Neurol., 60(4): 430-437. In brief, 48-well plates were coated with 0.01% poly-L-lysine (PLL) or poly-L-ornithine (PLO) overnight at 4°C, washed twice with water and air-dried. Directly before use, plates were washed twice with PBS, and Schwann cells, cerebellar neurons (PLL) or motoneurons (PLO) were seeded at a density of 1.25 x 10^4 (Schwann cells and motoneurons) or 2.5 x 10^4 cells (cerebellar neurons) per well in 250 µl of corresponding serum-free culture medium. Soluble organic compounds were added to the culture 1 h after seeding in increasing concentrations. […] Morphological quantification of neurite or process lengths was performed as described in Mehanna et al. (2009), see above. Schwann cell processes and neurites of cerebellar neurons with a length of at least one cell body diameter were counted and total neurite or process length per cell was determined by counting 50 cells in each of two wells per experiment. […]

quadriceps muscle = assay: Quadriceps muscle mass after femoral nerve injury; type: in vivo, C57BL/6J mice; settings: 15 week recovery, control group 111 mg
Experimental: Tegaserod was evaluated in a 2 mm femoral nerve defect of 12-week old C57BL/6J mice as previously described in Mehanna et al. (2009), see above. Briefly, mice were anesthetized and the femoral nerve of the left rear leg exposed. The nerve was bis-sected 3 mm proximal to the branching of the saphenous and motor branches, and the nerve ends were sutured 0.5 mm into a 3 mm polyethylene conduits with 0.58 mm inner diameter (Becton Dickinson), leaving an overall gap length of 2 mm. Conduits were filled with PuraMatrix peptide hydrogel (Becton Dickinson 354250) using 2x PBS as the gelation stimulant. Tegaserod was dissolved in the 2x PBS at concentrations of 500 nM and 5,000 nM, resulting in final concentrations of 250 nM and 2,500 nM once the PBS was combined 1:1 v/v with the PuraMatrix.
The quadriceps muscle, which is solely innervated by the femoral nerve, was extracted from each mouse and weighed at the end of the 15 week recovery period. The quadriceps muscles were removed from the injured and uninjured hind limbs of the mice. The quadriceps femoris muscle was identified by first removing the skin overlying the cranial thigh. The muscle was bluntly dissected starting distally at the level of the patellar tendon, working proximally. […]

murine motoneurons = assay: In vitro neurite outgrowth of motoneurons; type: cell-based, C57BL/6J mice; settings: tegaserod, cisapride, GR113808 100 nM; colominic acid 3 µM; PSA mimicking peptide 30 µM; Figure 2B
Experimental: Primary cultures of cerebellar neurons or Schwann cells were prepared from cerebellum or dorsal root ganglia of 7-day-old C57BL/6J mice as described in Mehanna et al. (2009), Brain, 132 (Pt 6): 1449-62 and Loers et al. (2005), J. Neurochem., 92(6): 1463-76. Motoneurons were prepared from E14 C57BL/6J mice as described in Simova et al. (2006), Ann. Neurol., 60(4): 430-437. In brief, 48-well plates were coated with 0.01% poly-L-lysine (PLL) or poly-L-ornithine (PLO) overnight at 4°C, washed twice with water and air-dried. Directly before use, plates were washed twice with PBS, and Schwann cells, cerebellar neurons (PLL) or motoneurons (PLO) were seeded at a density of 1.25 x 10^4 (Schwann cells and motoneurons) or 2.5 x 10^4 cells (cerebellar neurons) per well in 250 µl of corresponding serum-free culture medium. Soluble organic compounds were added to the culture 1 h after seeding in increasing concentrations. After maintenance for 24 h at 37°C, cells were fixed with 2.5% glutaraldehyde and stained with 1% methylene blue/toluidine blue in 1% borax. Morphological quantification of neurite or process lengths was performed as described in Mehanna et al. (2009), see above. Schwann cell processes and neurites of cerebellar neurons with a length of at least one cell body diameter were counted and total neurite or process length per cell was determined by counting 50 cells in each of two wells per experiment. At least three independent experiments were performed for each culture. Also, the activity of tegaserod with the PSA peptide mimic and the bacterial PSA analogue, colominic acid, on neurite and process extension experiments was compared.

[2] = tested on: motoneurons isolated from NCAM^-/- mice; assay: In vitro neurite outgrowth of NCAM-deficient motoneurons; type: cell-based; settings: tegaserod 100 nM; colominic acid 3 µM; PSA mimicking peptide 30 µM; Figure 2B
Experimental: as §1

anti-PSA antibody 735 = assay: Competition ELISA: antibody 735 binding to immobilized PSA mimicking peptide
Experimental: To confirm that the compounds identified in the screening from Example 1 are indeed PSA mimetics, binding of tegaserod maleate ((E)-but-2-enedioic acid; 1-[[(Z)-(5-methoxyindol-3-ylidene) methyl]amino]-2-pentylguanidine; hereafter termed tegaserod) and the control compound nitrendipine (5-O-ethyl 3-O-methyl-2,6-dimethyl-4-(3-nitrophenyl)-1,4-dihydropyridine-3,5-dicarboxylate) to the PSA antibody 735 was analyzed by competition ELISA. 384-well flat bottom microtiter plates (Corning Life Sciences) were coated in triplicates with 25 µl of PSA mimicking peptide coupled to catalase (3 µg/ml) or PBS alone at 4°C overnight. All following steps were carried out at room temperature. After blocking with 1% BSA in PBS for 1 h, the wells were washed three times for 5 min with PBS containing 0.05% Tween-20 (PBST). Wells were incubated with increasing concentrations of tegaserod and nitrendipine, pre-incubated with anti-PSA antibody 735 (0.1 µg/ml) for 1 h. […] The reaction was stopped by addition of 50 µl 2.5 M H2SO4 and quantified using an ELISA reader (µQuant, Bio-TEK, Winooski, VT, USA) at 490 nm and the software KCjunior (Bio-TEK).

Compound: [H]/N=C(/NCCCCC)N/N=C/c1c[nH]c2ccc(OC)cc12 [tegaserod, (E)-but-2-enedioic acid; 1-[[(Z)-(5-methoxyindol-3-ylidene)methyl]amino]-2-pentylguanidine]
- time after nerve injury at which sustained improvement of the FBA first became apparent ([1]; 250 nM in hydrogel conduit): 6 weeks
- time at which FBA improvement became statistically significant from the vehicle control group ([1]; 250 nM in hydrogel conduit): 10 weeks
- average FBA (foot base angle) ([1]; 250 nM in hydrogel conduit): 82 degrees
- average recovery index (RI) for the FBA ([1]; 250 nM, 15 weeks, vehicle control 37%): 62%
- time to return to pre-surgery PLR (protraction limb ratio) ([1]; 250 nM, vehicle control 8 weeks): ≤ 6 weeks
- PLR versus other groups (in words) ([1]; 2,500 nM): remained consistently higher than the other two groups
- FBA recovery versus vehicle control (in words) ([1]; 2,500 nM in hydrogel conduit): did not show statistically significant difference from vehicle control
- average FBA (foot base angle) ([1]; 2,500 nM in hydrogel conduit): 87 degrees
- recovery index (RI) for the FBA ([1]; 2,500 nM, 15 weeks, vehicle control 37%, considerable variation): 51%
- RI of the PLR reached by the majority of mice ([1]; 2,500 nM, a single mouse did not recover): 100%
- effect on process outgrowth of Schwann cells (in words) (Schwann cells): significantly enhance neurite/process outgrowth compared to control
- average quadriceps muscle mass, injured limb (quadriceps muscle; 250 nM, non-injured legs 208 mg): 165 mg
- quadriceps muscle mass, injured limb (quadriceps muscle; 2,500 nM, failed to reach statistical significance): 127 mg
- effect on neurite extension of murine motoneurons (in words) (murine motoneurons): significant stimulatory effect
- effect on neurite extension of NCAM^-/- motoneurons (in words) [2]: no enhancement in neurite extension
- concentration of maximal inhibition of binding of mAb 735 with the PSA peptide mimic (anti-PSA antibody 735; competition ELISA, Figure 1A): approximately 100 nM
- inhibition of binding of mAb 735 with the PSA peptide mimic (in words) (anti-PSA antibody 735; increasing concentrations, pre-incubated with antibody 735 (0.1 µg/ml) for 1 h): inhibit binding of mAb 735 with the PSA peptide mimic in a dose dependent manner
